# Source: patent publication US8853171B2, “1′-substituted carba-nucleoside analogs for antiviral treatment” (Gilead Sciences, Inc., priority 2008, dated 2014)
# Biological target: T1, HCV Δ21 NS5b polymerase (Hepatitis C virus genotype 1b, UniProt Q9WMX2)
# T1 construct: 75 nM HCV Δ21 NS5b polymerase
# Test: HCV IC50 determination: NS5b polymerase assay
# Assay type: biochemical
# Conditions: not given
# Description: Assay Protocol: NS5b polymerase assay (40 μL) was assembled by adding 28 μL polymerase mixture (final concentration: 50 mM Tris-HCl at pH 7.5, 10 mM KCL, 5 mM MgCl2, 1 mM DTT, 10 mM EDTA, 4 ng/μL of RNA template, and 75 nM HCV Δ21 NS5b polymerase) to assay plates followed by 4 μL of compound dilution. The polymerase and compound were pre-incubated at 35° C. for 10 minute before the addition of 8 μL of nucleotide substrate mixture (33P-α-labeled competing nucleotide at KM and 0.5 mM of the remaining three nucleotides). The assay plates were covered and incubated at 35° C. for 90 mM. Reactions were then filtered through 96-well DEAE-81 filter plates via vacuum. The filter plates were then washed under vacuum with multiple volumes of 0.125 M NaHPO4, water, and ethanol to remove unincorporated label. Plates were then counted on TopCount to assess the level of product synthesis over background controls. The IC50 value is determined using Prism fitting program.
row,Compound,IC50 [µM]
1,C[C@@]1(O)[C@H](O)[C@@H](COP(=O)(O)O)O[C@@]1(C#N)c1ccc2c(N)ncnn12 [Compound 17],< 1

# Test system: HCV replicon cells
# Test: HCV EC50 determination: replicon luciferase assay
# Assay type: cell-based
# Conditions: Hepatitis C virus, 72 h, 3 days incubation, luciferase activity
# Description: Replicon cells were seeded in 96-well plates at a density of 8×10^3 cells per well in 100 μL of culture medium, excluding Geneticin. Compound was serially diluted in 100% DMSO and then added to the cells at a 1:200 dilution, achieving a final concentration of 0.5% DMSO and a total volume of 200 μL. Plates were incubated at 37° C. for 3 days, after which culture medium was removed and cells were lysed in lysis buffer provided by Promega's luciferase assay system. Following the manufacturer's instruction, 100 μL of luciferase substrate was added to the lysed cells and luciferase activity was measured in a TopCount luminometer.
row,Compound,EC50 [µM]
1,C[C@@]1(O)[C@H](O)[C@@H](CO)OC1(O)c1ccc2c(N)ncnn12 (some centres unmarked) [Compound 2],10 to 100
2,CO[C@@]1(c2ccc3c(N)ncnn23)O[C@H](CO)[C@@H](O)[C@@]1(C)O [Compound 3],10 to 100
3,C[C@@]1(c2ccc3c(N)ncnn23)O[C@H](CO)[C@@H](O)[C@@]1(C)O [Compound 4],10 to 100
4,C[C@@]1(O)[C@H](O)[C@@H](CO)O[C@@]1(C#N)c1ccc2c(N)ncnn12 [Compound 5],10 to 100
5,CC(C)(C)C(=O)SCCOP(=O)(OCCSC(=O)C(C)(C)C)OC[C@H]1O[C@@](C#N)(c2ccc3c(N)ncnn23)[C@](C)(O)[C@@H]1O [Compound 6],< 1
6,CO[C@@]1(c2ccc3c(N)ncnn23)O[C@H](CO)[C@@H](O)[C@H]1O [Compound 12],1 to 10
7,N#C[C@@]1(c2ccc3c(N)ncnn23)O[C@H](CO)[C@@H](O)[C@H]1O [Compound 13],1 to 10
